Reference: the supplement of paper PMC8671470

Columns and labels:
Conditions in all cases: 72 h
SHI-1 [1] = assay: cell viability (% survival relative to DMSO control, bortezomib = 0%); higher = less cytotoxic
Summary of the method: (§1)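 After 72 h at 37 °C with 5% CO2, cell viability in 384-well plates was measured by CellTiter-Glo luminescence. The plates held compounds pre-printed at 1, 10, 100, 1000 or 10000 nM in duplicate, and cells from 10 AML and 5 CML lines seeded at densities titrated to linear growth. Percent survival is the duplicate mean, normalised to vehicle as 100% and a 10 µM positive control as 0%.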

K-562 [2] = assay: as above
Summary of the method: as §1

KU-812 [3] = assay: as above
Summary of the method: as §1

BV-173 [4] = assay: as above
Summary of the method: as §1

Mono-Mac-6 [5] = assay: as above
Summary of the method: as §1

ML-2 [6] = assay: as above
Summary of the method: as §1

NOMO-1 [7] = assay: as above
Summary of the method: as §1

THP-1 [8] = assay: as above
Summary of the method: as §1

KG-1 [9] = assay: as above
Summary of the method: as §1

HEL [10] = assay: as above
Summary of the method: as §1

MV4-11 [11] = assay: as above
Summary of the method: as §1

MOLM-13 [12] = assay: as above
Summary of the method: as §1

HL-60 [13] = assay: as above
Summary of the method: as §1

KCL-22 [14] = assay: as above
Summary of the method: as §1

SHI-1 [15] = system: SHI-1
Summary of the method: (§2)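 Fifteen myeloid leukaemia lines in RPMI 1640 were treated for 72 h at 37 °C and 5% CO2 with five tenfold doses from 1 to 10,000 nM, in duplicate. ATP luminescence was normalised to vehicle and to a positive control at 10 µM, then fitted with a four-parameter log-logistic model. The IC50 came from these fits.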

K-562 [16] = system: K-562
Summary of the method: as §2

KU-812 [17] = system: KU-812
Summary of the method: as §2

BV-173 [18] = system: BV-173
Summary of the method: as §2

Mono-Mac-6 [19] = system: Mono-Mac-6
Summary of the method: as §2

ML-2 [20] = system: ML-2
Summary of the method: as §2

NOMO-1 [21] = system: NOMO-1
Summary of the method: as §2

THP-1 [22] = system: THP-1
Summary of the method: as §2

KG-1 [23] = system: KG-1
Summary of the method: as §2

HEL [24] = system: HEL
Summary of the method: as §2

MV4-11 [25] = system: MV4-11
Summary of the method: as §2

MOLM-13 [26] = system: MOLM-13
Summary of the method: as §2

HL-60 [27] = system: HL-60
Summary of the method: as §2

LAMA-84 = system: LAMA-84
Summary of the method: as §2

KCL-22 [28] = system: KCL-22
Summary of the method: as §2

HL-60 [29] = assay: area under dose-response curve (viability, 1 nM-10 uM) (fraction (0-1)); higher = more sensitive
Summary of the method: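 In 384-well plates, the full library was rescreened in duplicate on HL-60 cells in RPMI 1640 with 10% FBS, at 1–10,000 nM in five tenfold concentrations, for 72 h at 37 °C, 5% CO2. Each run also held DMSO or 100 nM of one of three metabolic inhibitors. Viability was measured by CellTiter-Glo and normalised to DMSO wells and to wells with proteasome inhibitor, present at 10 μM. Any area under the curve comes from four-parameter log-logistic fitting with drc and PharmacoGx.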

N/C(=N\CCCC(N)C(=O)O)N[N+](=O)[O-] [L-NNA]
Conditions	area under dose-response curve, co-treatment: AZD3965 100 nM	area under dose-response curve, co-treatment: DMSO vehicle	area under dose-response curve, co-treatment: GSK2194069 100 nM	area under dose-response curve, co-treatment: pictilisib 100 nM	cell viability, 1 nM [%]	cell viability, 10 nM [%]	cell viability, 100 nM [%]	cell viability, 1000 nM [%]	cell viability, 10000 nM [%]
BV-173 [4]	–	–	–	–	96.5	103	105	88.9	96.1
HEL [10]	–	–	–	–	103	98.5	105	91.6	95.6
HL-60 [13]	–	–	–	–	96.1	75.4	114	92.4	126
HL-60 [29]	< 0.0301	< 0.0301	< 0.0301	< 0.0301	–	–	–	–	–
K-562 [2]	–	–	–	–	104	94.9	117	92.1	102
KCL-22 [14]	–	–	–	–	92.7	107	106	94.8	93.5
KG-1 [9]	–	–	–	–	89.2	93.7	96.3	92.6	89.8
KU-812 [3]	–	–	–	–	88.3	92.6	102	87.4	91.8
ML-2 [6]	–	–	–	–	90.7	102	102	93.7	94.5
MOLM-13 [12]	–	–	–	–	102	73.6	92.4	98	88.4
MV4-11 [11]	–	–	–	–	96.4	103	106	103	107
Mono-Mac-6 [5]	–	–	–	–	89.4	95.8	92.1	84.2	91
NOMO-1 [7]	–	–	–	–	96.4	99.8	99.4	91.5	92.2
SHI-1 [1]	–	–	–	–	98.8	95.6	109	96.1	96.7
THP-1 [8]	–	–	–	–	98.1	105	96.9	93	91.1

Conditions	IC50 (cell viability) [µM]
BV-173 [18]	> 10
HEL [24]	> 10
HL-60 [27]	> 10
K-562 [16]	> 10
KCL-22 [28]	> 10
KG-1 [23]	> 10
KU-812 [17]	> 10
LAMA-84	> 10
ML-2 [20]	> 10
MOLM-13 [26]	> 10
MV4-11 [25]	> 10
Mono-Mac-6 [19]	> 10
NOMO-1 [21]	> 10
SHI-1 [15]	> 10
THP-1 [22]	> 10

Cc1cn([C@H]2C[C@H](O)[C@@H](COP(=O)(O)OP(=O)(O)O)O2)c(=O)[nH]c1=O [Thymidine diphosphate]
Conditions	area under dose-response curve, co-treatment: AZD3965 100 nM	area under dose-response curve, co-treatment: DMSO vehicle	area under dose-response curve, co-treatment: GSK2194069 100 nM	area under dose-response curve, co-treatment: pictilisib 100 nM	cell viability, 1 nM [%]	cell viability, 10 nM [%]	cell viability, 100 nM [%]	cell viability, 1000 nM [%]	cell viability, 10000 nM [%]
BV-173 [4]	–	–	–	–	92.3	83.5	98.2	78	39
HEL [10]	–	–	–	–	99.1	89.4	93.2	106	103
HL-60 [13]	–	–	–	–	88.6	85.2	87.7	109	104
HL-60 [29]	< 0.0301	< 0.0301	< 0.0301	< 0.0301	–	–	–	–	–
K-562 [2]	–	–	–	–	104	91.1	105	100	99.6
KCL-22 [14]	–	–	–	–	111	89.8	98.3	97.7	85.6
KG-1 [9]	–	–	–	–	101	95.2	97.5	95.6	104
KU-812 [3]	–	–	–	–	88.2	93.6	109	96.9	102
ML-2 [6]	–	–	–	–	95.6	87.9	95.5	96.4	106
MOLM-13 [12]	–	–	–	–	108	92.1	110	105	103
MV4-11 [11]	–	–	–	–	95.7	87.8	98.6	102	96.4
Mono-Mac-6 [5]	–	–	–	–	95.1	88.1	105	91.8	92.5
NOMO-1 [7]	–	–	–	–	98.1	99.8	100	98.6	95.8
SHI-1 [1]	–	–	–	–	96.2	89.3	110	91.8	107
THP-1 [8]	–	–	–	–	99	92.5	95.8	95.7	99.3

Conditions	IC50 (cell viability) [µM]
BV-173 [18]	4.03
HEL [24]	> 10
HL-60 [27]	> 10
K-562 [16]	> 10
KCL-22 [28]	> 10
KG-1 [23]	> 10
KU-812 [17]	> 10
LAMA-84	> 10
ML-2 [20]	> 10
MOLM-13 [26]	> 10
MV4-11 [25]	> 10
Mono-Mac-6 [19]	> 10
NOMO-1 [21]	> 10
SHI-1 [15]	> 10
THP-1 [22]	> 10
